We go through 13 compounds from US8686044B2, “Amide derivative, pest control agent containing the amide derivative, and use of the amide derivative” (Mitsui Chemicals Agro, Inc., priority 2008, dated 2014).

Common to all, as to format: in vivo
The subject of test [1] is Adoxophyes honmai. Kind of test: Pesticidal test against Adoxophyes honmai (artificial feed dip). The conditions noted are these: 144 h, 2-stage larvae, examined after 6 days, 25° C., read-out: pesticidal rate; for pest or weed control at 1 ppm: concentration 1 ppm; for pest or weed control at 10 ppm: concentration 10 ppm. Summed up: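 Second-instar larvae, five per group in duplicate, were released onto air-dried feed slices previously immersed for 30 s in compound solution at a set concentration. Mortality was scored on day 6 at 25° C.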

Test [2] has as its system Blattella germanica. The experiment in a line: Pesticidal test against Blattella germanica (petri dish dry film). The conditions noted are these: 24 h, concentration 100 ppm, female adults, examined after 1 day, 25° C., read-out: pesticidal rate. Summed up:
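Acetone solution of test compound at a predetermined concentration dried as a film in a 9 cm petri dish; female adult cockroaches released onto it and kept at 25° C. Living and dead counted after 1 day; five insects per group, two replicates.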

In test [3] the test system is Choristoneura magnanima. The experiment in a line: Pesticidal test against Choristoneura magnanima (artificial feed dip). The conditions noted are these: 144 h, 2-stage larvae, examined after 6 days, 25° C., read-out: pesticidal rate; for pest or weed control at 1 ppm: concentration 1 ppm. Summed up: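 Second-stage larvae, five per group in duplicate, fed artificial diet that had been immersed 30 s in test solution at a predetermined concentration and air-dried. Mortality scored at day 6, 25° C.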

Test [4] has as its system Laodelphax striatellus. Kind of test: Pesticidal test against Laodelphax striatellus (rice seedling spray). The conditions noted are these: 144 h, concentration 100 ppm, 3-stage larvae, examined after 6 days, 25° C., read-out: pesticidal rate. A digest of the protocol:
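Rice seedlings sprayed with 2.5 ml acetone solution of compound at a predetermined concentration, air-dried, then infested with third-stage Laodelphax striatellus larvae in capped water-containing tubes at 25 °C. Living and dead insects counted after 6 days; ten larvae per group, two replicates.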

In test [5] the test system is Plutella xylostella. Kind of test: Pesticidal test against Plutella xylostella (cabbage leaf dip). The conditions noted are these: foliar, 144 h, concentration 1 ppm, 2-stage larvae, examined after 6 days, 25° C., read-out: pesticidal rate. A digest of the protocol: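 Second-stage larvae (5 per group, two replicates) were released onto air-dried cabbage leaf discs that had been immersed for 30 seconds in compound solution at a set concentration. Mortality was scored after 6 days at 25° C.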

In test [6] the test system is Helicoverpa armigera. Kind of test: Pesticidal test against Helicoverpa armigera (cabbage leaf disk dip). The conditions noted are these: foliar, 72 h, concentration 1 ppm, 2-stage larvae, examined after 3 days, 25° C., read-out: pesticidal rate. Summed up:
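Cabbage leaf disks were dipped for 30 s in test solution at a set concentration and air-dried. Second-instar larvae were placed one per hole and held at 25 °C, with live and dead counts taken after 3 days. Five larvae per group were tested in two replicates.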

The subject of test [7] is Musca domestica. Kind of test: Pesticidal test against Musca domestica (petri dish dry film). The conditions noted are these: 24 h, concentration 100 ppm, female adults, examined after 1 day, 25° C., read-out: pesticidal rate. A digest of the protocol: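 Female adult houseflies were confined at 25° C in capped 9 cm petri dishes coated with an air-dried film from 1 ml acetone solution of compound (predetermined concentration). Mortality was scored 1 day later, two replicates of five per group.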

Test [8] relates to Spodoptera litura. The experiment in a line: Pesticidal test against Spodoptera litura (cabbage leaf dip). The conditions noted are these: foliar, 144 h, concentration 1 ppm, 2-stage larvae, examined after 6 days, 25° C., read-out: pesticidal rate. Summed up:
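Cabbage leaf pieces dipped 30 seconds in compound solution at a predetermined concentration and air-dried, then offered to second-stage larvae, five per group in two replicates. Held at 25° C. Living and dead larvae counted after 6 days.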

Test [9] concerns Rhipicephalus sanguineus. Kind of test: Insecticidal test for Rhipicephalus sanguineus (treated glass petri dish, Table A6). The conditions noted are these: adults of Rhipicephalus sanguineus, 18 hour exposure, examined after 48 hours, in single. Here is the method: Insecticidal Test for Rhipicephalus sanguineus
0.5 ml of a solution of acetone, the active ingredient, prepared to the prescribed dose was added dropwise into a glass petri dish with a diameter of 10 cm, and the acetone was evaporated at room temperature. About 10 adults of Rhipicephalus sanguineus per dish were added, and the dish was covered by another glass petri dish that was treated with the active ingredient in the same manner described above. After 18 hour exposure to the test substance, the adults were transferred into a glass petri dish that was not treated with the active ingredient. After 48 hours of the exposure, the conditions of the adults were examined and classified into “alive” and “dead (including a moribund condition)” to determine the death rate (in single).
As the comparative compounds, said Compounds (B), (C), and (D), and the following Compound (F) disclosed in WO2009/080203, and fipronil were used.

The structures appear in SMILES notation.

As for `O=C(Nc1cccc(C(=O)Nc2c(I)cc(C(F)(C(F)(F)F)C(F)(F)C(F)(F)F)cc2C(F)(F)F)c1F)c1ccc(F)cc1` (stereo not drawn) [6-1811], the pest or weed control at 1 ppm in test [1], in test [3], in [5], in test [6] and in test [8] was not below 70% each time. Further, the pest or weed control at 100 ppm in [2], in test [4] and in test [7] was not below 70% each time.
Turning to `CN(C(=O)c1cccnc1Cl)c1cccc(C(=O)Nc2c(Br)cc(C(F)(C(F)(F)F)C(F)(F)C(F)(F)F)cc2C(F)(F)F)c1` (stereo not drawn) [7-382], the pest or weed control at 1 ppm in test [1], in test [3], in [5], in test [6] and in test [8] was not below 70% each time. The pest or weed control at 100 ppm in [2], in [4] and in test [7] was not below 70% each time.
As to `CN(C(=O)c1cccc(C#N)c1)c1cccc(C(=O)Nc2c(I)cc(C(F)(C(F)(F)F)C(F)(F)F)cc2C(F)(F)F)c1` [7-444], the pest or weed control at 10 ppm in test [1] is not below 70%. For the same compound, the pest or weed control at 100 ppm in [2], in [4] and in [7] was not below 70% each time. Also, the pest or weed control at 1 ppm in [3], in test [5], in test [6] and in [8] was not below 70% in each case.
In the case of `CN(C(=O)c1cccnc1Cl)c1cccc(C(=O)Nc2c(I)cc(C(F)(C(F)(F)F)C(F)(F)C(F)(F)F)cc2C(F)(F)F)c1` (stereo not drawn) [7-538], the pest or weed control at 1 ppm in test [1], in test [5], in test [6] and in test [8] was not below 70% each time. Further, the pest or weed control at 100 ppm in [2], in test [4] and in [7] was not below 70% throughout. For the same compound, in [3] (concentration 10 ppm), the pest or weed control at 10 ppm is not below 70%.
Turning to `CN(C(=O)c1cccc(F)c1)c1cccc(C(=O)Nc2c(Br)cc(C(F)(C(F)(F)F)C(F)(F)F)cc2Br)c1F` [7-1106], the pest or weed control at 1 ppm in test [1], in test [3], in [5], in test [6] and in [8] was not below 70% throughout. Moreover, the pest or weed control at 100 ppm in test [2], in test [4] and in test [7] was not below 70% throughout.
On to `CN(C(=O)c1cccc(F)c1)c1cccc(C(=O)Nc2c(I)cc(C(F)(C(F)(F)F)C(F)(F)F)cc2I)c1F` [7-1262], for which the pest or weed control at 1 ppm in test [1], in test [3], in [5], in [6] and in test [8] was not below 70% throughout. Further, the pest or weed control at 100 ppm in [2], in test [4] and in [7] was not below 70% in each case.
Regarding `CN(C(=O)c1cccc(C#N)c1)c1cccc(C(=O)Nc2c(I)cc(C(F)(C(F)(F)F)C(F)(F)F)cc2I)c1F` [7-1280], the pest or weed control at 1 ppm in test [1], in test [3], in test [5], in [6] and in [8] was not below 70% in each case. Also, the pest or weed control at 100 ppm in [2], in test [4] and in test [7] was not below 70% each time.
For the compound `CN(C(=O)c1ccc(Cl)nc1)c1cccc(C(=O)Nc2c(I)cc(C(F)(C(F)(F)F)C(F)(F)F)cc2I)c1F` [7-1303], the pest or weed control at 1 ppm in test [1], in test [3], in test [5], in [6] and in [8] was not below 70% in each case. Besides, the pest or weed control at 100 ppm in [2], in test [4] and in test [7] was not below 70% in each case.
As to `CN(C(=O)c1cccc(F)c1)c1cccc(C(=O)Nc2c(Br)cc(C(F)(C(F)(F)F)C(F)(F)F)cc2C(F)(F)F)c1F` [7-1576], the pest or weed control at 1 ppm in test [1], in test [3], in test [5], in test [6] and in test [8] was not below 70% each time. Besides, the pest or weed control at 100 ppm in test [2], in test [4] and in test [7] was not below 70% each time.
On to `CN(C(=O)c1cccc(C#N)c1)c1cccc(C(=O)Nc2c(I)cc(C(F)(C(F)(F)F)C(F)(F)F)cc2C(F)(F)F)c1F` [7-1750], for which the pest or weed control at 1 ppm in test [1], in test [3], in test [5], in [6] and in test [8] was not below 70% each time. Further, the pest or weed control at 100 ppm in test [2], in test [4] and in test [7] was not below 70% each time.
Take `CN(C(=O)c1ccc(Cl)nc1)c1cccc(C(=O)Nc2c(I)cc(C(F)(C(F)(F)F)C(F)(F)F)cc2C(F)(F)F)c1F` [7-1773]: in [1], the pest or weed control at 10 ppm was not below 70%. In addition, the pest or weed control at 100 ppm in test [2], in test [4] and in test [7] was not below 70% each time. In addition, the pest or weed control at 1 ppm in test [3], in test [5], in test [6] and in test [8] was not below 70% in each case.
On to `CN(C(=O)c1ccc(Cl)nc1)c1cccc(C(=O)Nc2c(I)cc(C(F)(C(F)(F)F)C(F)(F)C(F)(F)F)cc2C(F)(F)F)c1F` (stereo not drawn) [7-1851], for which, in test [1], the pest or weed control at 10 ppm is not below 70%. Also, the pest or weed control at 100 ppm in test [2], in test [4] and in [7] was not below 70% each time. Besides, the pest or weed control at 1 ppm in test [3], in test [5], in test [6] and in [8] was not below 70% each time.
On to `CCc1cc(C(F)(C(F)(F)F)C(F)(F)F)cc(C)c1NC(=O)c1cccc(NC(=O)C2CC2)c1` [compound (F)], for which the death rate in test [9] (0.673 mg/m^2), in test [9] (2.69 mg/m^2) and in [9] (10.8 mg/m^2) was 0.0% in each case.
